Patent US8686037B2, “Use of piracetam for treating diabetic nephropathy” (Uniwersytet Jagiellonski, priority 2009, dated 2014)

Key:
albumin [1] = molecular target: T1, albumin (Homo sapiens, UniProt P02768); test: Measurement of albumin glycation using spectrofluorimetric method (Ex/Em 370/440 nm); type: biochemical; conditions: 5 mM; albumin incubated with glucose 0.5 M for 4 weeks
Protocol: Glycation of protein in vitro was carried out according to following scheme: • 50 mg of protein (albumin, myoglobin) was dissolved in 1 ml 0.01M PBS (pH 7.4), containing D-glucose (0.1; 0.3; 0.5; 1M) and 5 mM toluene (as a bacteriostatic compound). The examined drug or aminoguanidine hydrochloride were added to samples at final concentrations from 0.1 mM to 5 mM. Samples were incubated at 37° C., in dark, for a specified period of time (1, 2, 3 and 4 weeks). Then, the protein was concentrated by ultrafiltration (30 min at 4000×g, 16° C.) with Amicon 50 cartridges (Millipore) with cut-off of 50 kDa (in case of albumin) or Amicon 10 cartridges with cut-off of 10 kDa (in case of myoglobin). The concentrated protein samples were dialyzed for 24 hrs, against distilled water, using dialysis membranes: Spectra Por (cut-off of 50 kDa for albumin and cut-off of 12-14 kDa for myoglobin). Then the samples were lyophilized overnight. • Control samples were prepared as above except of addition of glucose (control I) or drugs (control II). Sugar residues are characterized by fluorescence—Ex/Em 370/440 nm The action of drug is expressed by a suppression of the intensity of fluorescence. Lyophylized protein samples were dissolved in 0.01M PBS (pH 7.4), at concentration 0.5 mg protein/1 ml of buffer. […] Fluorescence intensity was measured at 440 nm emission upon excitation of 370 nm.

[2] = Glycaemia in streptozotocin-induced diabetes model; type: in vivo, Sprague-Dawley rats; conditions: rats injected with STZ; 354±40 mg/kg/day in drinking water, 8 weeks
Protocol: (§1) All experimental studies using animals were approved by an Ethical Committee at the Jagiellonian University. Diabetes model was established by the single, intraperitoneal administration of streptozotocin (STZ, 75 mg/kg in citrate buffer, pH 4.5) to three-month Sprague-Dawley rats. In order to maintain glycaemia between 350 and 450 mg/dL, animals were treated twice a week by insulin (neutral protamine Hagedorn, NPH, 2-3 U/300 g of body weight).
(§2) The rats were divided into three groups (each one of n=4 animals): “control” group—animals injected with citrate buffer only (sham animals), “diabetes” group—STZ treated animals and “STZ+drug” group—STZ-rats treated with examined drug (354±40 mg/kg/day in drinking water). The experiment lasted 8 weeks. Animals were anesthetized and killed, and both the tissue samples (kidneys, heart, lungs, brain) as well as blood samples were harvested. The presence of AGEs was evaluated by immunohistochemistry, with use of specific antibodies (Abcam, USA).

AGEs = test: Immunohistochemistry for AGEs in renal glomeruli, streptozotocin-induced diabetes model; type: in vivo, Sprague-Dawley rats; conditions: STZ rats; 354±40 mg/kg/day in drinking water, 8 weeks; kidney
Protocol: as §1, §2

albumin [3] = molecular target: T1, albumin; test: Measurement of glycation by mass spectrometry (gain of molecular weight of albumin incubated with glucose); type: biochemical
Protocol: Glycation of protein in vitro was carried out according to following scheme: • 50 mg of protein (albumin, myoglobin) was dissolved in 1 ml 0.01M PBS (pH 7.4), containing D-glucose (0.1; 0.3; 0.5; 1M) and 5 mM toluene (as a bacteriostatic compound). The examined drug or aminoguanidine hydrochloride were added to samples at final concentrations from 0.1 mM to 5 mM. Samples were incubated at 37° C., in dark, for a specified period of time (1, 2, 3 and 4 weeks). Then, the protein was concentrated by ultrafiltration (30 min at 4000×g, 16° C.) with Amicon 50 cartridges (Millipore) with cut-off of 50 kDa (in case of albumin) or Amicon 10 cartridges with cut-off of 10 kDa (in case of myoglobin). The concentrated protein samples were dialyzed for 24 hrs, against distilled water, using dialysis membranes: Spectra Por (cut-off of 50 kDa for albumin and cut-off of 12-14 kDa for myoglobin). Then the samples were lyophilized overnight. • Control samples were prepared as above except of addition of glucose (control I) or drugs (control II). The method is based on a measurement of protein molecular weight (albumin, myoglobin), which is increased in proportion to the number of bound sugar moieties. […] Based on obtained MS spectra, average protein molecular weight was calculated using BioWorks 1.0 software (Finnigan, San Jose, USA).

T1 sequence (P02768 25-609, species assumed): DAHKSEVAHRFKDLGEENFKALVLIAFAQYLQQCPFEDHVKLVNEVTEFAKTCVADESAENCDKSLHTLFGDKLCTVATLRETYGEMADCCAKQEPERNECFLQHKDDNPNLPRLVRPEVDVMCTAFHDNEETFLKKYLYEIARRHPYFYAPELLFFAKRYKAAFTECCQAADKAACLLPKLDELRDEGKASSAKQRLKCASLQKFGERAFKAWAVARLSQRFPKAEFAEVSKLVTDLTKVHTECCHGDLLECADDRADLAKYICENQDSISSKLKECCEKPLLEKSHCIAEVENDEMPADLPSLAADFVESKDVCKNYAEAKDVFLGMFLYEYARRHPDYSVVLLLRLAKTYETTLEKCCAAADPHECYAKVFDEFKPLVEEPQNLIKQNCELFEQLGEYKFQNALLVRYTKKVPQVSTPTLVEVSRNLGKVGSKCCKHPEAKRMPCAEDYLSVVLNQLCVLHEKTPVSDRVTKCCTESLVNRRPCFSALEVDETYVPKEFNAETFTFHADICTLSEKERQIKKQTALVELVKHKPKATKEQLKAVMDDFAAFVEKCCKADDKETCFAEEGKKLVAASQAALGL

For `Cl.N=C(N)NN` [aminoguanidine, aminoguanidine hydrochloride], the “inhibition of glycation (spectrofluorimetric method)” value (albumin [1]) was 67%.
With `NC(=O)CN1CCCC1=O` [tested compound, 2-(2-oxo-1-pyrrolidin-1-yl) acetamide] the glycaemia [2] was 429 ± 65.0 mg/dL, the influence on glycaemia [2] was “did not influence glycaemia” and the “number of AGE-positive glomeruli” value (AGEs) was “significantly reduced”. The “severity of changes in glomeruli” value (AGEs) was “significantly reduced”, the “inhibition of protein glycation (mass spectrometry method)” value (albumin [3]; 5 mM, albumin 50 mg/ml, glucose 0.5 M, 4 weeks, compared to mass of albumin incubated with glucose alone) was 33% and the “addition of glucose moieties to albumin” value (albumin [3]; in vitro model, FIG. 1, strength comparable to aminoguanidine) was “inhibited dose-dependently”. For the same compound, the “inhibition of glycation (spectrofluorimetric method)” value (albumin [1]) was 45%.
